Results published in EP0551200A1, “Protein phosphatase inhibitors for use in therapy” (priority 1992, dated 1993).

What was measured:
Egr-1 protein = assay: Immunoprecipitation of 32P-labeled Egr-1 protein from Balb/c 3T3 cells; format: cell-based, mouse; settings: 2 h treatment; OA 0.5 µM, calyculin A 25 nM, 20% fetal calf serum
Description: Quiescent Balb/c 3T3 cells were labeled with [³²P]-orthophosphate and incubated with either 20% fetal calf serum or okadaic acid (0.5 µM) for 2 h as described in "Experimental Procedures" of Example 2. Egr-1 protein(s) was immunoprecipitated by anti-Egr-1 antibody (R5232) and subjected to 7.5% SDS-PAGE. The dried SDS-gel was autoradiographed. lanes C, S and OA show immunoprecipitated proteins derived from quiescent cells, serum and okadaic acid-treated cells respectively. • (B). The immunoprecipitated Egr-1 protein(s) from okadaic acid-treated [³²P]-labeled Balb/c 3T3 cells was also subjected to 2-D gel electrophoresis as previously described (Guy et al, J. Biol. Chem. 266, 14343-14352, 1991). […]
The radioactivity of the in vitro transcribed RNA was determined and equal amounts of radioactive RNA from uninduced and okadaic acid treated cells were used to hybridize to specific plasmid (5 µg) previously applied to a nylon matrix with the aid of a slot blot applicator (Schleicher & Schuell, Keene, NH, US). […]
Okadaic acid or calyculin A was then added to a final concentration of 0.5 µM or 25 nM respectively and incubated for another 2 h. […] The immunoprecipitated proteins were analyzed by 7.5% SDS-PAGE as well as by two-dimensional gel electrophoresis as described previously (Guy et al, J. Biol. Chem. 266, 14343-14352, 1991). […]

Egr-1 mRNA = assay: Stability of induced Egr-1 mRNA after actinomycin D, Northern blot, Balb/c 3T3 cells; format: cell-based, mouse; settings: actinomycin D 25 µg/ml
Description: (A). Quiescent Balb/c 3T3 cells were incubated with either 0.5 µM of okadaic acid or 20% serum for 3 h or 0.5 h, respectively. Actimomycin D (final concentration being 25 µg/ml) was then added. The cells were then harvested at 0.5, 1, 1.5, 2 and 3 h after the addition of actinomycin D. RNA was isolated from these cells and analyzed by Northern blot. The blot was probed with Egr-1 or GADPH cDNA.
Quiescent mouse Balb/c 3T3 fibroblasts were incubated with DMEM containing either 0.5µM okadaic acid or 10% fetal calf serum for the times indicated in Fig. 10. […] Cells were harvested at the indicated time points and extracted for RNA and the RNA subjected to Northern blot analysis (Fig. 10).

human fibroblasts = assay: Total cellular protein synthesis in human fibroblasts; format: cell-based; settings: data not shown
Description: Quiescent human fibroblasts were stimulated with MEM containing 0.5 µM okadaic acid in the presence or absence of cycloheximide (10 µg/ml) for the times indicated in Fig. 11. […] Treatment of cells with cycloheximide enhanced the induction of Egr-1 mRNA by okadaic acid at 1.5 and 3 h (Fig. 11). Similarly puromycin, like cycloheximide, also "superinduces" the induction of the Egr-1 mRNA by okadaic acid (data not shown). […] However, in view that protein phosphatase 1 (PP1) and protein phosphatase 2A (PP2A) regulate enzymes associated with cellular protein synthesis (Cohen, Annu. Rev. Biochem. 58, 453-508, 1989) the effect of okadaic acid on protein synthesis in mouse and human fibroblasts was also measured. […] By then the Egr-1 mRNA message was already induced. A corollary to this is a comparison of the amount of ³⁵S-methionine labelled Egr-1 protein immunoprecipitated by R5232 antibodies from protein phosphatase inhibitor-treated and control cells. […] Thus, the induction of the Egr-1 gene by phosphatase inhibitors is unlikely to be mediated by their late inhibitory effects on cellular protein synthesis.

SMILES: C=C1[C@@H](O)[C@@H]2O[C@]3(CC[C@H](/C=C/[C@@H](C)[C@@H]4CC(C)=C[C@@]5(O[C@H](C[C@@](C)(O)C(=O)O)CC[C@H]5O)O4)O3)CC[C@H]2O[C@@H]1[C@@H](O)C[C@H](C)[C@H]1O[C@@]2(CCCCO2)CC[C@H]1C [okadaic acid]
- Egr-1 phosphoprotein immunoprecipitated (in words) (Egr-1 protein): high cellular concentration of the about 100 kDa Egr-1 phosphoprotein
- time for which induced Egr-1 mRNA is detectable after actinomycin D treatment (Egr-1 mRNA; 0.5 µM): up to 5.5 h
- half life of the induced Egr-1 message (Egr-1 mRNA; calculated from the data in Fig. 10): about 120 min
- effect on total cellular protein synthesis (in words) (human fibroblasts; 0.5 µM, first 2 h): little measurable effect
- inhibition at 0.5 µM (human fibroblasts; Homo sapiens, Fibroblast, at 4 h): ≤ 50%
